The subject of this data set is patients after bariatric surgery with post-prandial hypoglycaemia. The data set is described as follows: Follow up: off-label therapy with empagliflozin after the study. The conditions noted are these: six patients. Format: in vivo, human. An excerpt:
Two trial participants were continued to be treated, and four more patients were initiated on off-label therapy with empagliflozin after completion of the study.

Molecules are shown by their SMILES.

With `OC[C@H]1O[C@@H](c2ccc(Cl)c(Cc3ccc(O[C@H]4CCOC4)cc3)c2)[C@H](O)[C@@H](O)[C@@H]1O` [empagliflozin], the “efficacy and tolerability more than half a year after initiating off-label therapy” value was “still effective and well tolerated by all patients”. Moreover, where the note is “empagliflozin after completion of the study”, the “frequency of hypoglycemic episodes, off-label therapy” value was “lower frequency of hypoglycemic episodes in each of the six patients”.

(Values after patent US20220088144A1, “SGLT-2 INHIBITORS OR IL-1R ANTAGONISTS FOR REDUCTION OF HYPOGLYCAEMIA AFTER BARIATRIC SURGERY” (UNIVERSITÄTSSPITAL BASEL, priority 2019, published 2022).)
